# According to publication PMC8019204 (Cancer Science, 2021):
# Where “and” joins values, the source holds several entries; their conditions need not be identical. Equal values may be shown once. Read-outs that look alike come from different tables or passages of the source.
# What was measured:
# GEOMETRY mono-1: safety = format: in vivo, human
# METΔex14‐mutated NSCLC [1] = settings: global population, cited from earlier work
# [2] = GEOMETRY mono-1: plasma pharmacokinetics of capmatinib; format: in vivo, human; settings: for AUC(0-t): AUC0–12, geometric mean (CV%)
# METΔex14‐mutated NSCLC [3] = test system: METΔex14‐mutated NSCLC
# [4] = single agent; Japanese patients with advanced solid tumors; cited from earlier work
# MET‐amplified NSCLC = settings: global population, cited from earlier work
# [5] = 1L group, the one patient with PR
smiles,measurement,setting,value
"CNC(=O)c1ccc(-c2cnc3ncc(Cc4ccc5ncccc5c4)n3n2)cc1F [capmatinib, Capmatinib]",Treatment‐related AE (investigations): Lipase increased,"GEOMETRY mono-1: safety; grade 3/4, n = 45",3 (6.7) n (%) of patients
same,Treatment‐related AE (investigations): Neutrophil count decreased,"GEOMETRY mono-1: safety; grade 3/4, n = 45",3 (6.7) n (%) of patients
same,Treatment‐related AE (investigations): Platelet count decreased,"GEOMETRY mono-1: safety; grade 3/4, n = 45",2 (4.4) n (%) of patients
same,Treatment‐related AE (investigations): WBC count decreased,"GEOMETRY mono-1: safety; grade 3/4, n = 45",1 (2.2) n (%) of patients
same,Treatment‐related AE (investigations): γGT increased,"GEOMETRY mono-1: safety; grade 3/4, n = 45",1 (2.2) n (%) of patients
same,Treatment‐related AE: Anaemia,"GEOMETRY mono-1: safety; grade 3/4, n = 45",1 (2.2) n (%) of patients
same,Treatment‐related AE: Cellulitis,"GEOMETRY mono-1: safety; grade 3/4, n = 45",1 (2.2) n (%) of patients
same,Treatment‐related AE: Constipation,"GEOMETRY mono-1: safety; grade 3/4, n = 45",1 (2.2) n (%) of patients
same,Treatment‐related AE: Decreased appetite,"GEOMETRY mono-1: safety; grade 3/4, n = 45",2 (4.4) n (%) of patients
same,Treatment‐related AE: Diarrhoea,"GEOMETRY mono-1: safety; grade 3/4, n = 45",1 (2.2) n (%) of patients
same,Treatment‐related AE: Dry skin,"GEOMETRY mono-1: safety; grade 3/4, n = 45",0 n (%) of patients
same,Treatment‐related AE: Fatigue,"GEOMETRY mono-1: safety; grade 3/4, n = 45",0 n (%) of patients
same,Treatment‐related AE: Headache,"GEOMETRY mono-1: safety; grade 3/4, n = 45",0 n (%) of patients
same,Treatment‐related AE: Hypoalbuminaemia,"GEOMETRY mono-1: safety; grade 3/4, n = 45",0 n (%) of patients
same,Treatment‐related AE: Malaise,"GEOMETRY mono-1: safety; grade 3/4, n = 45",1 (2.2) n (%) of patients
same,Treatment‐related AE: Nausea,"GEOMETRY mono-1: safety; grade 3/4, n = 45",0 n (%) of patients
same,Treatment‐related AE: Oedema peripheral,"GEOMETRY mono-1: safety; grade 3/4, n = 45",3 (6.7) n (%) of patients
same,Treatment‐related AE: Pyrexia,"GEOMETRY mono-1: safety; grade 3/4, n = 45",0 n (%) of patients
same,Treatment‐related AE: Rash,"GEOMETRY mono-1: safety; grade 3/4, n = 45",0 n (%) of patients
same,Treatment‐related AE: Vomiting,"GEOMETRY mono-1: safety; grade 3/4, n = 45",1 (2.2) n (%) of patients
same,Any treatment‐related AE,"GEOMETRY mono-1: safety; grade 3/4, n = 45, Table 5",25 (55.6) n (%) of patients
same,Patients who experienced at least one AE,"GEOMETRY mono-1: safety; of 45 patients, cutoff September 18, 2019",45 patients
same,"Discontinuation from treatment phase, reason: Adverse event","GEOMETRY mono-1: safety; overall Japanese cohort (n = 45), cutoff April 15, 2019",8 (17.8) n (%) of patients
same,ORR by BIRC,"METΔex14‐mutated NSCLC [1]; first‐line, 28 patients",68%
same,Median DOR in responders,METΔex14‐mutated NSCLC [1]; first‐line,12.6 months
same,"Intracranial responses, share of patients",METΔex14‐mutated NSCLC [1]; patients with evaluable brain metastases at baseline,about half
same,ORR by BIRC,"METΔex14‐mutated NSCLC [1]; second‐/third‐line, 69 patients",41%
same,Tumor shrinkage,"METΔex14‐mutated NSCLC [1]; second‐/third‐line, in two patients",> 90%
same,Median DOR in responders,METΔex14‐mutated NSCLC [1]; second‐/third‐line,9.7 months
same,Accumulation of exposure,"[2]; 400 mg twice daily, Japanese patients",1.41 fold
same,Accumulation of exposure,"[2]; 400 mg twice daily, overall study result",1.39 fold
same,"Racc AUC0–12 (accumulation ratio), geometric mean (CV%)","[2]; cycle 1, day 15 (steady state), 400 mg twice daily, fasting, Japanese patients",1.41
same,Time at which maximum concentration was reached after administration,"[2]; day 15, 400 mg twice daily, Japanese patients",≤ 1 h
same,half-life,"[2]; human, plasma, oral, 400 mg",6.54 h
same,AUC(0-t),"[2]; human, plasma, oral, 400 mg, cycle 1, day 1, 400 mg twice daily, fasting, Japanese patients",18200 ng·h/mL
same,AUC(0-t),"[2]; human, plasma, oral, 400 mg, cycle 1, day 15 (steady state), 400 mg twice daily, fasting, Japanese patients",27000 ng·h/mL
same,Cmax,"[2]; human, plasma, oral, 400 mg, Cmax, geometric mean (CV%), cycle 1, day 15 (steady state), 400 mg twice daily, fasting, Japanese patients",5920 ng/mL
same,Best overall response: CR,"METΔex14‐mutated NSCLC [3]; 1L group (cohort 5b, n = 2)",0 n (%) of patients
same,Best overall response: Non‐CR/non‐PD,"METΔex14‐mutated NSCLC [3]; 1L group (cohort 5b, n = 2)",0 n (%) of patients
same,Best overall response: PD,"METΔex14‐mutated NSCLC [3]; 1L group (cohort 5b, n = 2)",0 n (%) of patients
same,Best overall response: PR,"METΔex14‐mutated NSCLC [3]; 1L group (cohort 5b, n = 2)",1 (50.0) n (%) of patients
same,Best overall response: SD,"METΔex14‐mutated NSCLC [3]; 1L group (cohort 5b, n = 2)",1 (50.0) n (%) of patients
same,Best overall response: Unknown,"METΔex14‐mutated NSCLC [3]; 1L group (cohort 5b, n = 2)",0 n (%) of patients
same,DOR,METΔex14‐mutated NSCLC [3]; [5],4.24 months
same,Decrease in lesion size,METΔex14‐mutated NSCLC [3]; [5],76.5%
same,Time to confirmed PD after starting capmatinib,METΔex14‐mutated NSCLC [3]; [5],168 days and 5.5 months
same,DCR (BIRC),METΔex14‐mutated NSCLC [3]; 2/3L group (cohort 4),81.8%
same,Median PFS (BIRC),METΔex14‐mutated NSCLC [3]; 2/3L group (cohort 4),4.70 months
same,ORR (BIRC),METΔex14‐mutated NSCLC [3]; 2/3L group (cohort 4),36.4%
same,Best overall response: CR,"METΔex14‐mutated NSCLC [3]; 2/3L group (cohort 4, n = 11)",0 n (%) of patients
same,Best overall response: Non‐CR/non‐PD,"METΔex14‐mutated NSCLC [3]; 2/3L group (cohort 4, n = 11)",0 n (%) of patients
same,Best overall response: PD,"METΔex14‐mutated NSCLC [3]; 2/3L group (cohort 4, n = 11)",1 (9.1) n (%) of patients
same,Best overall response: PR,"METΔex14‐mutated NSCLC [3]; 2/3L group (cohort 4, n = 11)",4 (36.4) n (%) of patients
same,Best overall response: SD,"METΔex14‐mutated NSCLC [3]; 2/3L group (cohort 4, n = 11)",5 (45.5) n (%) of patients
same,Best overall response: Unknown,"METΔex14‐mutated NSCLC [3]; 2/3L group (cohort 4, n = 11)",1 (9.1) n (%) of patients
same,Median DOR (95% CI),"METΔex14‐mutated NSCLC [3]; 2/3L group (cohort 4, n = 11)",NE (3.35–NE)
same,Median TTR (95% CI),"METΔex14‐mutated NSCLC [3]; 2/3L group (cohort 4, n = 11)",NE (1.38–NE)
same,Probability estimate at 3 mo for TTR (95% CI),"METΔex14‐mutated NSCLC [3]; 2/3L group (cohort 4, n = 11)",36.4 (15.5‐70.3)
same,"Tumor shrinkage, deep response","METΔex14‐mutated NSCLC [3]; 2/3L group, a patient with PR",~ 80%
same,Brain response per independent neuroradiologist review,"METΔex14‐mutated NSCLC [3]; 2/3L group, one patient with brain metastases, CT 12 weeks after starting capmatinib",partial resolution of brain lesions
same,"Tumor shrinkage, deep response",METΔex14‐mutated NSCLC [3]; one patient in each group (1L and 2/3L),~ 80%
same,Maximum tolerated dose,[4],not identified
same,Median DOR,"MET‐amplified NSCLC; GCN ≥10, first‐line",7.5 months
same,Median DOR,"MET‐amplified NSCLC; GCN ≥10, second/third‐line",8.3 months
